In BindingDB's records for doi:10.1016/j.ejmech.2009.09.041 (Institute For Medical Research and Occupational Health, 2010):

What was measured:
Cholinesterase = Cholinesterase (Homo sapiens, UniProt P06276); assay: Inhibition of human plasma BChE by Ellman's method
Acetylcholinesterase = Acetylcholinesterase (Homo sapiens, UniProt P22303); assay: Inhibition of human recombinant AChE by Ellman's method
Acetylcholinesterase, sequence (P22303 whole entry): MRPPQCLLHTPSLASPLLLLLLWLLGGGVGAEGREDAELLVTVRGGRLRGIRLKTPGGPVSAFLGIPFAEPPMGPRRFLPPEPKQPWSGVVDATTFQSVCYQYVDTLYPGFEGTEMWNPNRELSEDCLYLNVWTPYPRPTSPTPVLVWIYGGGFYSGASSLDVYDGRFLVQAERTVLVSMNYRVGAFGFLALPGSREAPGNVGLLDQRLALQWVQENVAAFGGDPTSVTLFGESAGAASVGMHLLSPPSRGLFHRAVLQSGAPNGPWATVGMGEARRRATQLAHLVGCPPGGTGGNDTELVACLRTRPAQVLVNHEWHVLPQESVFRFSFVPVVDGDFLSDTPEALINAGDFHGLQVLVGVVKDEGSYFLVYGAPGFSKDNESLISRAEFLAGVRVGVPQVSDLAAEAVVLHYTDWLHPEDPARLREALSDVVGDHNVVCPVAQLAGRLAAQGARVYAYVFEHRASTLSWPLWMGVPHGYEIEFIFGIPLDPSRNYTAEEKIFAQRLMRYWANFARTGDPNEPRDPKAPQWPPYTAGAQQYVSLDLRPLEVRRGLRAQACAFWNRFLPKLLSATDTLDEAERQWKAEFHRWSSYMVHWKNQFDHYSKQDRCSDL

Cholinesterase, sequence (P06276 whole entry): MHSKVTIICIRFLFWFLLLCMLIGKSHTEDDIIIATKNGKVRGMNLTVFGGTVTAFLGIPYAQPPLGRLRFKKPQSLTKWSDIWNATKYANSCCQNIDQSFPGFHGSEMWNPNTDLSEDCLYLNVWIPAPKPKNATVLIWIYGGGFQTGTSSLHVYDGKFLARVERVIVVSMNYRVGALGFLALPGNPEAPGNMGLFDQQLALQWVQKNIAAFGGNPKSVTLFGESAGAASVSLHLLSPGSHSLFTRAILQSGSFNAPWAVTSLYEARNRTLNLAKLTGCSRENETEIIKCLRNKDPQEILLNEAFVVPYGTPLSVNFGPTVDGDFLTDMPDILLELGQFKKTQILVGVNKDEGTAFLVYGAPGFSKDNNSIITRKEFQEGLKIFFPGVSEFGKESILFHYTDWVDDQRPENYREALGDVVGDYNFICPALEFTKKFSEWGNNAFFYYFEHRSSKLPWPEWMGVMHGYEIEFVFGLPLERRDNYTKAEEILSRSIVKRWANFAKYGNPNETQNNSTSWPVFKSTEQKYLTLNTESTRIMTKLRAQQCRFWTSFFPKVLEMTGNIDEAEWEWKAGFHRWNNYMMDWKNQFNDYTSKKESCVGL

SMILES: C[C@@H]1O[C@@H](OC[C@H]2O[C@@H](Oc3c(-c4ccc(O)c(O)c4)oc4cc(O)cc(O)c4c3=O)[C@H](O)[C@@H](O)[C@@H]2O)[C@H](O)[C@H](O)[C@H]1O [3-Rhamnoglucosylquercetin]
- Ki (Cholinesterase): 501 µM
- Ki (Acetylcholinesterase): > 300 µM

SMILES: O=c1c(O)c(-c2cc(O)c(O)c(O)c2)oc2cc(O)cc(O)c12
- Ki (Cholinesterase): 71 µM
- Ki (Acetylcholinesterase): 37.8 µM

SMILES: O=c1c(O)c(-c2ccc(O)cc2)oc2cc(O)cc(O)c12
- Ki (Cholinesterase): 43.1 µM
- Ki (Acetylcholinesterase): 92.8 µM

SMILES: O=c1c(O)c(-c2ccc(O)c(O)c2)oc2cc(O)cc(O)c12 [2-(3,4-dihydroxyphenyl)-3,5,7-trihydroxy-chromone;hydrate]
- Ki (Cholinesterase): 68 µM
- Ki (Acetylcholinesterase): 38.3 µM

SMILES: O=c1c(O)c(-c2ccc(O)c(O)c2)oc2cc(O)ccc12 [2-(3,4-dihydroxyphenyl)-3,7-dihydroxy-chromen-4-one]
- Ki (Cholinesterase): 90 µM
- Ki (Acetylcholinesterase): 100 µM

SMILES: O=c1c(O)c(-c2ccccc2)oc2cc(O)cc(O)c12 [norizalpinin]
- Ki (Cholinesterase): 6.9 µM
- Ki (Acetylcholinesterase): 85.6 µM

SMILES: O=c1cc(-c2ccc(O)c(O)c2)oc2cc(O)cc(O)c12 [2-(3,4-dihydroxyphenyl)-5,7-dihydroxy-4H-chromen-4-one]
- Ki (Cholinesterase): 166 µM
- Ki (Acetylcholinesterase): 65.8 µM

SMILES: O=c1cc(-c2ccc(O)cc2)oc2cc(O)cc(O)c12 [Naringenin, 18]
- Ki (Cholinesterase): 37.4 µM
- Ki (Acetylcholinesterase): 122 µM
